melting point | Compound
168 to 169 °C | CC(C)(C)OC(=O)N1CCN(C(=O)Nc2ccccc2)CC1
201 °C | COc1ccc(C(=O)Cn2cc[nH]c2=O)cc1OC1CCCC1
158 to 160 °C | CCCCCCC(C)N(Cc1ccc(CC(C)(C)C)cc1)C(Nc1cc(C(C)(C)C)c(O)c(C(C)(C)C)c1)=C1C(=O)COC1=O (configuration not stated)
184 to 185 °C | CC(=O)Oc1cc2c(c3ccccc13)Nc1ccccc1S2
149 to 151 °C | CCCCc1oc2ccccc2c1-c1ncc(-c2ccc3cc(OCC(=O)OC)ccc3c2)o1
197 to 198 °C | CCOc1ccc(C(=O)c2c(N)sc3c2CCN(C(=O)OCc2ccccc2)C3)cc1
203 to 205 °C | CCOCCOc1ccc(-c2ccc3c(c2)C=C(C(=O)Nc2ccc(CN(C)C4CCOCC4)cc2)CCS3(=O)=O)cc1Cl
170 to 171 °C | Cc1oc(-c2ccccc2)nc1COc1ccc(CSc2nc(CCC(=O)O)n[nH]2)cc1
86 to 87 °C | CC(COc1c(-c2ccccc2)c(=O)oc2ccccc12)CN1CCCCC1 (configuration not stated)
153 to 155 °C | Cc1cn(-c2ccc(NC(=O)c3ccc(Cl)c(C#Cc4ccc(NC5CCC5)nn4)c3)cc2C(F)(F)F)cn1
107 to 108 °C | Cn1c(=O)ccc2cc(COc3cccc(C4(C)CCOCC4)c3)ccc21
71 to 72 °C | C=CCOc1cc(C(=O)OCC)nc2ccccc12
138 to 141 °C | O=C1NCc2ccc3ccccc3c21
226 to 227 °C | NC(=O)c1sc(-n2cnc3cnccc32)cc1OCc1ccccc1C(F)(F)F
108 to 113 °C | O=C1NC(=O)C(Cc2ccc(N3CCC(NC[C@H](O)c4csc(C(F)(F)F)n4)CC3)cc2)S1 (some centres not stated)
184 to 196 °C | Nc1cccc(-c2ccc(-c3cccc(CN4CC5C(N)C5C4)c3)cc2)n1 (configuration not stated)
169 to 170 °C | CCOC(=O)c1ccc(NC(=O)c2ccc3c(c2)CCC(C)(C)C(=O)N3C)cc1
170 °C | CN1CCN(C(=O)OC2C3=C(SCCS3)C(=O)N2c2ccc(Cl)cn2)CC1 (configuration not stated)
145 to 146 °C | Cn1nc(-c2ccncc2)nc1-c1ccccn1
240 °C | CC12CCC(C(=Cc3ccc(C(=O)O)cc3)C1=O)C2(C)C (configuration not stated)
98.8 to 101 °C | CCOC(=O)C[C@H](O)COC(c1ccccc1)(c1ccccc1)c1ccccc1
230 to 231 °C | CCCOc1ccccc1-c1nc(NC(C)=O)cc(=O)[nH]1
235 to 240 °C | CC1(C)C(=NO)C(=NO)C(C)(C)N1C(=O)c1ccccc1
225 to 226 °C | COc1cc(CNC(=O)c2nc3scc(COCc4ccc(C(=O)O)cc4)c3c(=O)[nH]2)ccc1F
159 °C | CCCCCCCCC(Cc1cccnc1)(C(=O)O)S(=O)(=O)c1ccc(OC)cc1 (configuration not stated)

melting point | Compound
199 to 201 °C | Cc1nnc2ccc(-c3ccc(C(F)(F)F)cc3)nn12
92 to 93 °C | COc1cccc(C(=O)C=C2CCCN2C)c1
224 to 226 °C | CCN(CC)C(=O)c1c(-c2ccccc2)[nH]c2ccccc12
196 to 198 °C | Cc1c(C(N)=NO)ncn1-c1cccc(Oc2ccccc2)c1
257 °C | CCCCc1nc2c(N)nc3ccc(OCC(=O)N4CCOCC4)cc3c2n1C
181 to 182 °C | CCc1ccc(-c2ccc3c(c2)C=C(C(=O)Nc2ccc(CN(C)C4CCOCC4)cc2)CCO3)cc1
80 °C | CCOC(=O)[C@@H](Cc1cccnc1)NC(C)=O
96 to 98 °C | COc1ccc(Nc2ccn(-c3ccccc3)n2)cc1
205 to 206 °C | Cc1cccc(Nc2ncnc3ccc(N)cc23)c1
56 to 58 °C | O=C(CNC(=O)c1cc([N+](=O)[O-])ccc1F)OCc1ccccc1
75 to 76 °C | CCCCCCCC(=O)c1ccc(CCC(CC)(COC(C)=O)NC(C)=O)cc1 (configuration not stated)
137 to 138 °C | CC(=O)NC(C)(C)c1ccc(CN2CCN(c3ncccn3)CC2)cc1
202 to 203 °C | CC(=NNC(=O)c1ccccc1)c1cccc(Cl)c1O
114 to 116 °C | COCCOc1cc(/C=C/C(=O)NS(=O)(=O)CCC(C)C)n(Cc2ccc(C(F)(F)F)cc2Cl)n1
247 to 248 °C | CCNCC1CCN(c2c(F)c(F)c3c(=O)c(C(=O)O)cn(C4CC4)c3c2F)C1 (configuration not stated)
115 to 117 °C | CCN(CCCCC1CCN(C(c2ccccc2)c2ccccc2)CC1)C(=O)C=Cc1cccnc1
134 °C | COc1cc(O)c(CN(CCc2ccc([N+](=O)[O-])cc2)C(=O)OC(C)(C)C)c(OC)c1
89 to 92 °C | COC(=O)c1ccc(NCc2cccc(F)c2)cn1
207 °C | CC1N(C)C=C([N+](=O)[O-])N1CCOC(=O)Nc1cccc(C(N)=O)c1 (configuration not stated)
164 to 165 °C | COc1cc(OC)nc(NC(=O)NS(=O)(=O)c2nccn2-c2nn(C)cc2Cl)n1
176 to 177 °C | CCOC(=O)c1cc(NCc2ccccc2)c(NC2CCCCC2)c(S(N)(=O)=O)c1
108 to 110 °C | Cc1cc(C2(C(F)(F)F)CC(c3ccc(F)cc3)=NO2)ccc1N (configuration not stated)
191 °C | COc1ccc(CNC(=O)c2ccc3c(c2)c(=O)n(Cc2ccccc2)c(=O)n3C)cc1
130 to 131 °C | CCOC(=O)C1=C(C)Nc2ccnc(OC(C)C)c2C1c1cccc(C(F)(F)F)c1 (configuration not stated)
204 °C | COc1cc(C(=O)N2Cc3ccc(C(=O)NCc4ccccc4C)n3Cc3ccccc32)ccc1-c1ccccc1C

The next lines start with the molecule.

Compound | melting point
Nc1nc2c(Cl)cc(F)c(-c3ncc(C(F)(F)F)cc3Cl)c2s1 | 230 to 235 °C
O=C(O)CCC(=O)OCCn1ccnc1 | 108 to 110 °C
COc1ccc(CNC(=O)n2cc(F)c(=O)[nH]c2=O)c(OC)c1 | 154 °C
COc1cccc2c1CCCC2(O)CN (configuration not stated) | 129 to 130 °C
O=C1c2ccccc2OCC1Br (configuration not stated) | 48 to 51 °C
CCCCCCCCCC(O)C#CC(=O)O (configuration not stated) | 65 to 66 °C
COc1c(OS(C)(=O)=O)ccc2[nH]ncc12 | 130 to 131 °C
CNc1nnc(-c2ccc3occ(-c4cccc(OC(F)(F)F)c4)c3c2)o1 | 169 to 170 °C
COC(=O)[C@@H]1C(=O)CC[C@H]1C(=O)OC (relative stereo) | 49 to 50 °C
CCCNC(=O)NC1CCCCC1 | 108 to 109 °C
O=C(O)C1CCSc2ccc(Cl)cc21 (configuration not stated) | 139 to 150 °C
O=C(CCc1cc(C2CCCCC2)c(O)c(C2CCCCC2)c1)NCCCCCCNC(=O)CCc1cc(C2CCCCC2)c(O)c(C2CCCCC2)c1 | 28 °C
CCCCCCCCNC(=O)Oc1ccc(Oc2ccccc2)cc1 | 44 to 46 °C
CCN(CC)C(=O)COC(=O)CCc1cc(S(C)(=O)=O)cc(-c2nc(=O)c3ccc(Cl)cc3s2)n1 | 179 to 180 °C
Nc1ccc(CCN2CCN(c3ccc(N)cc3Cl)CC2)cc1 | 109 to 112 °C
CCOC(=O)c1c(SC)n(-c2ccc(F)cc2)c2cc(F)c(F)cc2c1=O | 167 °C
CN(C)C=CC(=O)c1ccc(C(F)(F)F)cc1[N+](=O)[O-] | 101 °C
Cc1ccccc1C=C(C#N)C#N | 105 to 106 °C
CCCCCCCCCCCCCCCCCCOC(=O)C(NC(C)=O)C(=O)OC (configuration not stated) | 75 to 77 °C
CC1(C)C(=O)N(c2ccc(C#N)c(C(F)(F)F)c2)C(=O)N1CCCCO | 102 to 103 °C
CC(=NO)C12CCCC(C1)C1CCC2C1 (configuration not stated) | 157 to 158 °C
COC(=O)Nc1cc(=O)[nH]c(N)n1 | 186 to 188 °C
CCCCCCCCCCCCS(=O)(=O)Nc1cc(-c2cc3cc(F)c(F)cc3[nH]2)ccc1OC | 148 to 149 °C
CCOC(=N)C1(O)CCc2ccccc21 (configuration not stated) | < 20 °C
CC(Cc1ccc(OCc2cccc(C(N)=O)c2)cc1)NCCC(c1ccccc1)c1ccccc1 (configuration not stated) | 188 to 190 °C
Nc1nc(CN2CCC(c3c[nH]c4ccccc34)CC2)cs1 | 195 to 198 °C

Compound | melting point
C#CCOC(=O)C1=C(C)NC(C)=C(C(=O)OC)C1c1ccccc1C(F)(F)F (configuration not stated) | 115 °C
CN(C)S(=O)(=O)c1ccc(C(N)=O)c(C(F)(F)F)c1 | 149 to 156 °C
CCOC(=S)CC/C(C)=C/Cc1c(O)c2c(c(C)c1OC)COC2=O | 63 to 67 °C
Nc1nc(Cl)nc2c1ncn2C1C=CCCC1 (configuration not stated) | 195 to 197 °C
Cc1cc(C)c(C#N)c(-c2ccc(F)c(C)c2)c1 | 98 to 100 °C
CCc1oc2ccc(C(C)C(=O)O)cc2c(=O)c1C (configuration not stated) | 196 to 198 °C
CNCC1Cc2cc(-c3ccc(F)cc3)cc(F)c2O1 (configuration not stated) | > 250 °C
Nc1c(Cl)cc(C(O)CNCCCCCCOCCCc2ccc(Br)cn2)cc1Cl (configuration not stated) | 52 to 55 °C
CC(C)Oc1c(CO)cnc2c(Cl)cccc12 | 88 to 89 °C
COc1cc(OC)c2c(=O)[nH]c(-c3ccc(OCC(N)=O)cc3)nc2c1 | 309 to 311 °C
CCCCCCCCCCCCCCCCCCSC(C)(C)C(=O)CC(=O)OCC | 34 to 37 °C
COc1ccc(Cl)cc1C(=O)NC1Cc2cc(S(N)(=O)=O)c(OC)cc2OC1(C)C (configuration not stated) | 228 °C
CC(=O)Oc1ccc(C=Cc2cc(OC(C)=O)c(OC(C)=O)c(OC(C)=O)c2)cc1 | 162 to 163 °C
O=c1cc(-c2ccccc2)n(-c2ccccc2)c(-c2ccccc2)c1C(F)(F)F | 222 to 225 °C
CCCCCOc1ccc2c(c1)C=C(CNC(=O)CCC)CO2 | 90 °C
CC(=O)OC/C(=C(\C(=O)O)c1ccc(F)cc1)c1ccc(S(C)(=O)=O)cc1 | 187 °C
CCCCC(C(=O)OCC)(C(=O)OCC)c1nc(C)nc2c1c(SC)nn2-c1c(Cl)cc(Cl)cc1Cl | 148 to 150 °C
O=S(=O)(O)CCN1CCOCC1 | 68 to 78 °C
CC(C)C[N+]([O-])=Cc1ccccc1 | 73 to 75 °C
COc1cc(C)c(OC)c(C=C(C)[N+](=O)[O-])c1C | 48 to 49 °C
COc1ccc([C@@H]2Sc3ccccc3N(CCN(C)C)C(=O)[C@@H]2OC(=O)c2ccc([N+](=O)[O-])cc2)cc1 | 113 to 114 °C
CS(=O)c1onc(-c2ccccc2)c1-c1ccc(S(N)(=O)=O)cc1 (configuration not stated) | 194 to 204 °C
COCOc1ccc([N+](=O)[O-])c(C=O)c1 | 68 to 69 °C
COC(=O)Nc1nc(OC)nc(OC)n1 | 118 to 122 °C
COC(=O)c1cccc(N)n1 | 87 °C
COC(=O)c1cc(C)cc(C=O)c1 | 71 to 73 °C

From a melting point compilation (Tetko et al.; mined from patent text by program, amines drawn as free bases though some values may be those of a salt)
